Results: patent US20030032639A1, “Composition and method for reducing adverse interactions between phenothiazine derivatives and plasma using surfactants and amino acids” (Wyeth, priority 2001, published 2003)

What was measured:
[1] = promethazine hydrochloride preparation mixed with plasma in vitro, relative amount of precipitate formed; type: physicochemical; settings: laboratory studies, ratio not stated
From the text: Without being bound by any particular theory, it is believed that this precipitate formation could be related to the venous thrombosis found at the injection site, as well as the cause of other local adverse reactions involving promethazine injection. […] With a composition according to one or more of the embodiments set forth herein, it is expected that a promethazine solution given by the routes of i.v. and i.m. (intramuscular) injection would have fewer incidences of irritation and other adverse reactions at the site of injection.

[2] = after intramuscular injection; cited from earlier work
[3] = cited from earlier work

Q: What does the source list for CC(CN1c2ccccc2Sc2ccccc21)N(C)C.Cl (racemic) [promethazine hydrochloride, 10H-Phenothiazine-10-ethanamine, N,N, α-trimethyl-, monohydrochloride, (±)]?
A: precipitate formation when solution is mixed with plasma [1]: precipitates form immediately; plasma creatine kinase levels (indication of muscle irritation) [2]: raise plasma creatine kinase levels; adverse reactions at the local area of injection ([3]; clinical case reports): irritation and other serious adverse reactions at the local area of injection, particularly gangrene at the extremity of the injection site; venous thrombosis at the injection site ([3]; in vivo, iv): some incidents of venous thrombosis at the injection site
